Measured values taken from publication PMC9679999, “A Useful Guide to Lectin Binding: Machine-Learning Directed Annotation of 57 Unique Lectin Specificities” (ACS Chemical Biology, 2022).

How the values were obtained:
Type in all cases: binding
[1] = target: T1, Psophocarpus tetragonolobus lectin-I (PTL-I/PTA-I) (Psophocarpus tetragonolobus, UniProt O24313); test: CFG glycan microarray v5, biotinylated lectin, Cy5-streptavidin
T1 construct: gene WBAI
T1 sequence (O24313 1-242): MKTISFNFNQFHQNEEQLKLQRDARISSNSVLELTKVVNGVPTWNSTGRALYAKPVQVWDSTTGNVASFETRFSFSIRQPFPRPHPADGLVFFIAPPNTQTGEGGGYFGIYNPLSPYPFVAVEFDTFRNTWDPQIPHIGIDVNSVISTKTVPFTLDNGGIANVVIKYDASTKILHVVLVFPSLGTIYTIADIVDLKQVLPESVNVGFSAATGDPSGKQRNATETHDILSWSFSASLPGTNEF

[2] = target: T2, Hippeastrum hybrid Lectin (HHA, HHL) (Hippeastrum hybrid cultivar, UniProt Z9FHC8O5N0); test: as above
T2 construct: commercial lectin (EY and Vector), biotinylated
T2 sequence (Z9FHC8O5N0 1-108): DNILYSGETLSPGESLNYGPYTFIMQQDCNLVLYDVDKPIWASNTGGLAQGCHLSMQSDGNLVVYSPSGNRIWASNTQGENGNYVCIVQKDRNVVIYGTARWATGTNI

[3] = target: Marasmius oreades agglutinin (MOA) (Marasmius oreades, UniProt Q8X123); test: as above
[4] = target: T3, Cholera Toxin B Subunit (CTB) (Vibrio cholerae, UniProt P01556)
T3 construct: gene ctxB
T3 sequence (P01556 22-124 limits assumed): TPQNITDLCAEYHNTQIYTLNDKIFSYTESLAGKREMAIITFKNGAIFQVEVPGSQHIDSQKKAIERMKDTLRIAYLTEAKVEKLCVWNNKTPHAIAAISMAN

Marasmius oreades agglutinin (MOA), sequence (Q8X123 entry or part of it): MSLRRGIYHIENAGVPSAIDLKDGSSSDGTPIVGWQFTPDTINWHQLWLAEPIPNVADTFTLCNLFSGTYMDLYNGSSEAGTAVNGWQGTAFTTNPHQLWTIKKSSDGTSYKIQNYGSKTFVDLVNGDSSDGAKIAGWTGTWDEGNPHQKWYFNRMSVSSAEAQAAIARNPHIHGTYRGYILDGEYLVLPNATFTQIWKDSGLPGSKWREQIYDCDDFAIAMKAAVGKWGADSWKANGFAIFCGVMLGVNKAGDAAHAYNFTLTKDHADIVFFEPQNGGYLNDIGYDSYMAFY

CC(=O)N[C@H]1[C@@H](O[C@H]2[C@@H](O)[C@@H](CO)OC(O)[C@@H]2O[C@@H]2O[C@@H](C)[C@@H](O)[C@@H](O)[C@@H]2O)O[C@H](CO)[C@H](O)[C@@H]1O (stereo partly shown) [blood group A trisaccharide]
CFG glycan microarray v5, biotinylated lectin, Cy5-streptavidin [1]: we found blood group A trisaccharides

OC[C@H]1O[C@H](OC[C@H]2OC(O)[C@@H](O)[C@@H](O[C@H]3O[C@H](CO)[C@@H](O)[C@H](O)[C@@H]3O)[C@@H]2O)[C@@H](O)[C@@H](O)[C@@H]1O (stereo partly shown) [mannose core trisaccharide]
CFG glycan microarray v5, biotinylated lectin, Cy5-streptavidin [2]: This lectin shows the highest affinity for the mannose core trisaccharide

C[C@@H]1O[C@@H](O[C@H]2C(O)O[C@H](CO)[C@H](O)[C@@H]2O[C@H]2O[C@H](CO)[C@H](O)[C@H](O)[C@H]2O)[C@@H](O)[C@H](O)[C@@H]1O (stereo partly shown) [B trisaccharide]
CFG glycan microarray v5, biotinylated lectin, Cy5-streptavidin [3]: This motif lies within the B trisaccharide, which is preferentially bound by this lectin

CC(=O)N[C@H]1[C@H](O[C@@H]2[C@H](O[C@]3(C(=O)O)C[C@H](O)[C@@H](NC(C)=O)[C@H]([C@H](O)[C@H](O)CO)O3)[C@@H](O)[C@H](O[C@H]3[C@H](O)[C@@H](O)C(O)O[C@@H]3CO)O[C@@H]2CO)O[C@H](CO)[C@H](O)[C@@H]1O[C@@H]1O[C@H](CO)[C@H](O)[C@H](O)[C@H]1O (stereo partly shown) [GM1]
CFG glycan microarray v5, biotinylated lectin, Cy5-streptavidin [4]: Our analysis found only two glycan binders, GM1 and fucosylated GM1
